In patent US11628186B2, “Method and composition for the reduction of viral replication, duration and spread of the COVID-19 and the flu” (priority 2017, dated 2023):
Read-outs that look alike come from different tables or passages of the source.

How the values were obtained:
tumors = assay: Pre-inhalation of the formula before inhaled 3-bromopyruvate; assay type: in vivo, rats
Method: The problem with 3-bromopyruvate was its toxicity to normal lung cells. The formula needed to protect noncancerous cells from 3-bromopyruvate and to enhance its effect on tumors, was the addition of inhaled 20 mM solution of sodium pyruvate, calcium, phosphate, magnesium formula inhaled 1-2 hours prior to the inhalation of the 10 mg of 3-bromopyruvate. The investigators were given the sodium pyruvate with calcium, phosphate and magnesium formula and instructed to have the rats inhale the formula 1-2 hours prior the inhalation of the cancer drug. This approach reduced tumor sizes by 90% compared the 60% reduction with 3bromopyruvate by itself. The addition of dichloroacetate with 3-bromopyruvate to the sodium pyruvate with calcium, phosphate and magnesium formula was the best formula decreasing tumor loads by 95%, especially with the addition of magnesium bicarbonate that increased the PH to 7.9 to neutralize the lactic acid produced in tumors that enhance tumorigenesis.

[1] = system: human lung cancer cell line; settings: cited from earlier work
lung tumors = settings: cited from earlier work
[2] = system: patients with lung diseases including COPD; assay: Comparison of inhaled salts of pyruvate, 5 ml of 0.5 mM solution (Table I); settings: for Increased in FEV-1% lung function: 5 ml of 0.5 mM solution in physiological saline; for Overall Rating 1-10: 1 most negative, 10 best
Method: All previous studies using pyruvate to treat Allergic Rhinitis, Asthmatic and COPD patients used only the sodium salt form of pyruvic acid in saline. The drug products that were tested in the six Phase I/II clinical trial were differing concentrations of sodium pyruvate dissolved in 0.9% sodium chloride solution (Saline). These drug products contained 0.5 mM, 1.5 mM, or 5.0 mM of sodium pyruvate in physiological saline. They were administered to normal volunteers and COPD and asthmatics by inhalation therapy. […] Various sodium pyruvate solutions were evaluated in the lungs for their ability to enhance FEV1 values and reduce coughing, and lung tightness.
The amount of the salts delivered in the 5 ml's of the 0.5 mM pyruvate solutions were compared to the amounts of the salts in 5 ml's of human blood. […] When ethyl pyruvate reacts with oxygen radical like hydrogen peroxide, it is converted to ethane and alcohol and Co2 and acetate. Ethane and alcohol are lung irritants.
This formula can also be made by adding 3% calcium phosphate or dicalcium phosphate to the standard 0.5 mM to 30 mM sodium pyruvate saline solution see Table I.

[3] = system: patients with sinus & lung diseases including IPF and COPD; assay: Salts of pyruvate as 20 mM nasal sprays (Table IX); settings: for Overall Rating 1-10: 20 mM (0.22%) nasal spray, 1 most negative, 10 best; for Increased in FEV-1% / Irritation / Percentage Increase in SaO2 over baseline / Percentage increase of Nitric Oxide over baseline / Relief of congestion, coughing and lung tightness: in vivo
From the text: They never tested the individual salts for their ability to reduce inflammation or increase lung functions.

[4] = system: patients suffering from Parkinson; assay: Inhaled pyruvate salts in Parkinson patients; assay type: in vivo, human; settings: 1 mM solution in the calcium, phosphate, magnesium formula, inhaled every day for five weeks
[5] = system: patients with lung diseases including COPD; assay: Comparison of inhaled salts of pyruvate, 5 ml of 5 mM solution (Table II); settings: for Increased in FEV-1%: 5 ml of 5 mM solution in saline; for Increased in FEV-1% / Irritation / Percentage Increase in SaO2 over baseline / Percentage increase of Nitric Oxide over baseline / Relief of congestion, coughing and lung tightness: inhaled; for Irritation / Percentage Increase in SaO2 over baseline / Percentage increase of Nitric Oxide over baseline / Relief of congestion, coughing and lung tightness / Overall Rating 1-10: 5 ml of 5 mM solution; for Overall Rating 1-10: 1 most negative, 10 best
[6] = system: patients with chronic Hypoxemia; assay: Various drugs with or without pre-inhaled pyruvate formulas (Table VII); assay type: in vivo, human; settings: in vivo
Method: With the hundreds of patients tested in our various clinical trials, data was gathered as to the type of medications the patients used and the frequency of their use over a six-month period. The patients were asked to rate their medications form 1-10 with 1 being the most irritating with the most side effects and 10 being the best with no irritation and no side effects. In these clinical trials, various drugs were evaluated for irritation, mucus production, and efficacy in humans. The drugs were all evaluated using their current formulations and concentrations against the same formulations with the addition of sodium pyruvate, with the calcium, phosphate and magnesium formula given just prior to the use of their medications. They were instructed to 20 inhale this formula just prior to the use of their medications and to evaluate the effect of their medications on the 1-10 scale.
Patients on the various inhaled medications whether inhaled or taken orally or by IV infusion, were enlisted in the evaluation of the inhaled sodium pyruvate calcium, phosphate and magnesium formula. The patients were tested for their SaO2 levels and those that had SaO2 levels below 92% were asked to enlist in the study. […] After the SaO2 levels were determined prior to and one hour after taking their medications, the patients returned the following day, SaO2 measurements were taken one hour prior to taking their medications. The patients were then handed the hypotonic inhalation formula of sodium pyruvate with calcium, phosphate magnesium formula and instructed to inhale it one hour before taking their medications, SaO2 measurements were then taken one hour after taking their medications.

Smokers = assay: Inhaled nicotine in pyruvate formulas
[7] = Mucolytic activity with inhaled acetylcysteine; assay type: in vivo, human; settings: with or versus commercial inhaled acetylcysteine
[8] = system: porcine respiratory coronavirus (PRCV); assay: Antiviral assay with NO donor in swine testicular (ST) cells; assay type: cell-based; settings: NO donor SNAP
Method: We examined NO levels by Greiss assay in bronchoalveolar lavage (BAL) of pigs infected with either porcine respiratory coronavirus (PRCV). The antiviral effects of NO on this virus was tested in an in vitro system using a NO donor, S-nitroso-N-acetyl penicillamine (SNAP). We detected a large increase in NO levels in BAL fluids of PRCV-infected pigs. Pulmonary epithelial cell necrosis induced by PRCV coincided with increased NO. […] NO plays a role in innate immunity to respiratory CoV infections by inhibiting viral replication.

SARS CoV = assay type: cell-based
[9] = system: Patients with a severe case of CIVID-19 infection; assay type: in vivo, human; settings: 5 patients treated with just the gas
[10] = 1 atm, cited from earlier work
[11] = aerosol, 10 mg/5 mL by inhalation, 8 weeks
[12] = 5 ml of 0.5 mM solution, inhaled

| Compound | Increased in FEV-1% lung function ([2]; inhaled) | Irritation [2, 12] | Percentage Increase in SaO2 over baseline [2, 12] | Percentage decrease or increase of Nitric Oxide over baseline [2, 12] | Relief of congestion, coughing and lung tightness [2, 12] | Overall Rating 1-10 ([2]; 5 ml of 0.5 mM solution) | Overall Rating 1-10 [3] | Increased in FEV-1% [3] | Irritation [3] | Percentage Increase in SaO2 over baseline [3] | Percentage increase of Nitric Oxide over baseline [3] | Relief of congestion, coughing and lung tightness [3] | shaking [4] | Increased in FEV-1% [5] | Irritation [5] | Percentage Increase in SaO2 over baseline [5] | Percentage increase of Nitric Oxide over baseline [5] | Relief of congestion, coughing and lung tightness [5] | Overall Rating 1-10 [5] | also measured |
| --- | --- | --- | --- | --- | --- | --- | --- | --- | --- | --- | --- | --- | --- | --- | --- | --- | --- | --- | --- | --- |
| O=C(O)C(=O)CBr [3-bromopyruvate] | – | – | – | – | – | – | – | – | – | – | – | – | – | – | – | – | – | – | – | reduced tumor sizes (tumors; 20 mM sodium pyruvate, calcium, phosphate, magnesium formula inhaled 1-2 hours prior to 10 mg of 3-bromopyruvate): 90%; reduction of tumor sizes (tumors; by itself): 60%; apoptosis [1]: induced apoptosis through caspase-3, and PARP; decreased tumor load (lung tumors; [11]): 60%; decreased tumor multiplicity (lung tumors; [11]): 40%; liver toxicity (lung tumors; aerosolized): did not accompany any liver toxicity |
| CC(=O)C(=O)[O-].[Li+] [Lithium, lithium pyruvate] | 1.0% | Yes | No | +6.0% | 2 | 2 | 2 | 0.0% | Yes | No | 00.0% | 2 | substantially reduced | 1.0% | Yes | No | 28.0% | 2 | 2 | reduction of nitric oxide ([2]; 5 mls of a 0.5 mM inhalation solution): did not reduce nitric oxide; irritation in the nasal cavities compared with the lungs ([2]; evaluated in the nasal cavities): even more irritating; bronchial dilator effect ([2]; inhaled): acting as a bronchial dilator; Irritation ([2]; inhaled into the lungs): irritating |
| CN1CCCC1c1cccnc1 (stereo not shown) [Nicotine] | – | – | – | – | – | – | – | – | – | – | – | – | – | – | – | – | – | – | – | SaO2 Measurements taken after medication and compared to baseline [6]: −3; SaO2 Measurements taken after taking the medication and compared to baseline [6]: +2; SaO2 measurements taken after taking medication and compared to baseline [6]: +4; ability of each patient to determine the effect of nicotine delayed (Smokers; Nicotine delivered only with sodium pyruvate in saline solution): 26%; tolerability (Smokers; nicotine in modified formula sodium pyruvate and calcium, phosphate and magnesium, nasal or lungs): well tolerated |
| CC(=O)C(=O)N[C@@H](CS)C(=O)O [Pyruvyl-cysteine] | 11% | – | 0% | 0% | 5 | 8 | – | – | – | – | – | – | – | 5% | – | 0% | 1% | 8 | 8 | mucolytic activity [7]: as effective as acetylcysteine |
| [N]=O [nitric oxide] | – | – | – | – | – | – | – | – | – | – | – | – | – | – | – | – | – | – | – | PRCV replication [8]: significantly inhibited PRCV replication; replication cycle of SARS CoV (SARS CoV): specifically inhibits the replication cycle of SARS CoV; lung surfactants and lung fibrosis [9]: did not increase lung surfactants or reduce lung fibrosis; solubility in water ([10]; 20° C.): 4.6 ml/100 ml; solubility in water ([10]; 60° C.): 2.37 ml/100 ml |
| magnesium pyruvate | 12.0% | None | no | −2.0% | 6 | 7 | 4 | 4.0% | slight | no | 5.1% | 6 | also worked | 2.0% | None | no | 5.1% | 6 | 7 | FEV1 ([2]; 5 mls of a 0.5 mM pyruvate inhalation solution in COPD and asthmatic patients): 10% |
